In US10246429B2, “Vinyl fluoride cyclopropyl fused thiazin-2-amine compounds as beta-secretase inhibitors and methods of use” (AMGEN INC., priority 2015, dated 2019):

Assays:
BACE2 = BACE2 (Homo sapiens (Human), UniProt Q9Y5Z0); experiment: In vitro enzymatic BACE2 FRET assay; assay type: biochemical; settings: read-out: IC50 IP (μM) BACE2 Enzyme
Text: (§1) In Vitro Enzymatic BACE1 and BACE2 FRET (Fluorescence Resonance Energy Transfer) Assays (Enzyme Assay Data in Table 1)

BACE1 [1] = biological target: T1, BACE1 (Homo sapiens (Human), UniProt P56817); experiment: BACE1 cell assay; assay type: cell-based
Target sequence in this assay (P56817 46-501, species assumed): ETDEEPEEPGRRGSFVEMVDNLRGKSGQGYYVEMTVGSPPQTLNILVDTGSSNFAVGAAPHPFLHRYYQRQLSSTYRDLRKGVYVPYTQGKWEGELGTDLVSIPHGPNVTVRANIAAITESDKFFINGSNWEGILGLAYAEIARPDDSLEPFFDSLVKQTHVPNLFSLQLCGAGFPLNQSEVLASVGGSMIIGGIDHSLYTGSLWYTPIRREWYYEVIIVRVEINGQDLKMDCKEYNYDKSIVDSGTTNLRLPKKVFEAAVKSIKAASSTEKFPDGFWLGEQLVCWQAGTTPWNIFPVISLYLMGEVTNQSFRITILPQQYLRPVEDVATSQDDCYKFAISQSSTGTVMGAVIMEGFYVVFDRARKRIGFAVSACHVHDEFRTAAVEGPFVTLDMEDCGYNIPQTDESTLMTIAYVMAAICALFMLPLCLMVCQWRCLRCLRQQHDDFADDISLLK

Cathepsin D (CatD) = Cathepsin D (CatD) (Homo sapiens (Human), UniProt P07339); experiment: CatD assay; assay type: biochemical; settings: read-out: IC50 IP (μM) CatD
BACE1 [2] = biological target: T1, BACE1; experiment: In vitro enzymatic BACE1 FRET assay; assay type: biochemical; settings: read-out: IC50 IP (μM) BACE1 Enzyme
Target sequence in this assay (P56817 46-501): as the sequence (P56817 46-501, species assumed) above
Text: as §1

[3] = read-out: IC50 IP (μM) BACE1 Cell

Sequence of Cathepsin D (CatD) (P07339 65-412, species assumed): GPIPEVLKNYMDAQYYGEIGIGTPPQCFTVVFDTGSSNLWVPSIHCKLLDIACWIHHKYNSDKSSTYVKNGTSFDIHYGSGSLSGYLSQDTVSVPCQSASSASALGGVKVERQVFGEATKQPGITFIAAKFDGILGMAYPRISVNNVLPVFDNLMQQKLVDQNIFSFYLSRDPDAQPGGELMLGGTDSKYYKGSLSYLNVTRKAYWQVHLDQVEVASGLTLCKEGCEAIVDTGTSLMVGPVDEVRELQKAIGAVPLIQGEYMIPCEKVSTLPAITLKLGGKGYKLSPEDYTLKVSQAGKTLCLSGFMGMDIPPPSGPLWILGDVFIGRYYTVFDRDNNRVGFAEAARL
Sequence of BACE2 (Q9Y5Z0 63-518): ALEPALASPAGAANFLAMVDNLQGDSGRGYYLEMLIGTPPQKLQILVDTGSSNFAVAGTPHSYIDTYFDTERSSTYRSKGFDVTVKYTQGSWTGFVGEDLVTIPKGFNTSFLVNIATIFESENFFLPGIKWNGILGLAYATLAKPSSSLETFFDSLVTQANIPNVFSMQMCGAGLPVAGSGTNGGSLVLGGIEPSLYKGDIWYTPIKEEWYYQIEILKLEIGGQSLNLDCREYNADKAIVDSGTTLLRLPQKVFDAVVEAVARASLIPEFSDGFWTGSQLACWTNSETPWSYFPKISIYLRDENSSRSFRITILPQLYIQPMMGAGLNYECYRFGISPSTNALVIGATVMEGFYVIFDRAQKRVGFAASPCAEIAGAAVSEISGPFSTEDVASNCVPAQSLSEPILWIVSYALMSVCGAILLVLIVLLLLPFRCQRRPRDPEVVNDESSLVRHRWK

Structure (SMILES)	IC50 (BACE2) [µM]	IC50 (BACE1 [1]; [3]) [µM]	IC50 (Cathepsin D (CatD)) [µM]	IC50 (BACE1 [2]) [µM]	IC50 (BACE1 [1]) [µM]
CC1CCN(C(=O)[C@]23C[C@H]2[C@@](C)(c2cc(/C=C(\F)c4ccc(C#N)cn4)ccc2F)N=C(N)S3)CC1 [Example 147, 6-((Z)-2-(3-((1S,5S,6S)-3-amino-5-methyl-1-(4-methylpiperidine-1-carbonyl)-2-thia-4-azabicyclo[4.1.0]hept-3-en-5-yl)-4-fluorophenyl)-1-fluorovinyl)nicotinonitrile]	0.00486	0.003	93.9	0.000793	–
CN(C)C(=O)[C@]12C[C@H]1[C@@](C)(c1cc(/C=C(\F)c3ccc(C#N)cc3)ccc1F)N=C(N)S2 [Example 168, (1S,5S,6S)-3-amino-5-(5-((Z)-2-(4-cyanophenyl)-2-fluorovinyl)-2-fluorophenyl)-N,N,5-trimethyl-2-thia-4-azabicyclo[4.1.0]hept-3-ene-1-carboxamide]	0.104	0.0368	442	0.00496	–
CN(C)C(=O)[C@]12C[C@H]1[C@@](C)(c1cc(/C(F)=C/c3ccc(Cl)cn3)ccc1F)N=C(N)S2 [Example 185, (1S,5S,6S)-3-amino-5-(5-((Z)-2-(5-chloropyridin-2-yl)-1-fluorovinyl)-2-fluorophenyl)-N,N,5-trimethyl-2-thia-4-azabicyclo[4.1.0]hept-3-ene-1-carboxamide]	0.0764	–	172	0.132	0.695
CNC(=O)[C@]12C[C@H]1[C@@](C)(c1cc(/C=C(\F)c3cnc(C#CCF)cn3)ccc1F)N=C(N)S2 [Example 363, (1S,5S,6S)-3-amino-5-(2-fluoro-5-((Z)-2-fluoro-2-(5-(3-fluoroprop-1-yn-1-yl)pyrazin-2-yl)vinyl)phenyl)-N,5-dimethyl-2-thia-4-azabicyclo[4.1.0]hept-3-ene-1-carboxamide]	0.152	1.34	> 400	0.01	–
C[C@]1(c2cc(/C=C(\F)c3ccc(C#N)cn3)cnc2F)N=C(N)S[C@@]2(C(=O)NCC(F)F)C[C@H]21 [Example 281, (1S,5S,6S)-3-amino-5-(5-((Z)-2-(5-cyanopyridin-2-yl)-2-fluorovinyl)-2-fluoropyridin-3-yl)-N-(2,2-difluoroethyl)-5-methyl-2-thia-4-azabicyclo[4.1.0]hept-3-ene-1-carboxamide]	0.164	–	269	0.0214	0.0542
COC(=O)[C@]12C[C@H]1[C@@](C)(c1cc(/C=C(\F)c3ccc(Cl)cn3)cc(F)c1F)N=C(N)S2 [Example 248, (1S,5S,6S)-methyl 3-amino-5-(5-((Z)-2-(5-chloropyridin-2-yl)-2-fluorovinyl)-2,3-difluorophenyl)-5-methyl-2-thia-4-azabicyclo[4.1.0]hept-3-ene-1-carboxylate]	0.083	–	200	0.0625	1.59
CN(C)C(=O)[C@]12C[C@H]1[C@@](C)(c1cc(/C=C(\F)c3ccc(C#CC4CC4)cn3)ccc1F)N=C(N)S2 [Example 109, (1S,5S,6S)-3-amino-5-(5-((Z)-2-(5-(cyclopropylethynyl)pyridin-2-yl)-2-fluorovinyl)-2-fluorophenyl)-N,N,5-trimethyl-2-thia-4-azabicyclo[4.1.0]hept-3-ene-1-carboxamide]	0.0615	0.223	138	0.00849	–
C[C@]1(c2cc(/C=C(\F)c3ccc(C4COC4)cn3)ccc2F)N=C(N)S[C@@]2(C(=O)N3CCOCC3)C[C@H]21 [Example 340, ((1S,5S,6S)-3-amino-5-(2-fluoro-5-((Z)-2-fluoro-2-(5-(oxetan-3-yl)pyridin-2-yl)vinyl)phenyl)-5-methyl-2-thia-4-azabicyclo[4.1.0]hept-3-en-1-yl)(morpholino)methanone]	3.21	0.457	298	0.545	–
C#CCOc1cnc(/C(F)=C/c2ccc(F)c([C@@]3(C)N=C(N)S[C@@]4(c5ncc(C)o5)C[C@@H]34)c2)cn1 [Example 345, (1S,5S,6S)-5-(2-fluoro-5-((Z)-2-fluoro-2-(5-(prop-2-yn-1-yloxy)pyrazin-2-yl)vinyl)phenyl)-5-methyl-1-(5-methyloxazol-2-yl)-2-thia-4-azabicyclo[4.1.0]hept-3-en-3-amine]	0.52	0.156	88.9	0.0063	–
CNC(=O)[C@]12C[C@H]1[C@@](C)(c1cc(/C=C(\F)c3cnc(C#C[Si](C)(C)C)cn3)ccc1F)N=C(N)S2 [Example 166, (1S,5S,6S)-3-amino-5-(2-fluoro-5-((Z)-2-fluoro-2-(5-((trimethylsilyl)ethynyl)pyrazin-2-yl)vinyl)phenyl)-N,5-dimethyl-2-thia-4-azabicyclo[4.1.0]hept-3-ene-1-carboxamide]	1.72	0.185	146	0.0171	–
C[C@]1(c2cc(/C=C(\F)c3cnc(N4CCOC4=O)cn3)ccc2F)N=C(N)S[C@@]2(C(=O)N3CCOCC3)C[C@H]21 [Example 346, 3-(5-((Z)-2-(3-((1S,5S,6S)-3-amino-5-methyl-1-(morpholine-4-carbonyl)-2-thia-4-azabicyclo[4.1.0]hept-3-en-5-yl)-4-fluorophenyl)-1-fluorovinyl)pyrazin-2-yl)oxazolidin-2-one]	0.942	2.19	25.5	1.4	–
CNC(=O)[C@]12C[C@H]1[C@@](C)(c1cc(/C=C(\F)c3ccc(C(F)(F)F)cn3)ccc1F)N=C(N)S2 [Example 224, (1S,5S,6S)-3-amino-5-(2-fluoro-5-((Z)-2-fluoro-2-(5-(trifluoromethyl)pyridin-2-yl)vinyl)phenyl)-N,5-dimethyl-2-thia-4-azabicyclo[4.1.0]hept-3-ene-1-carboxamide]	0.564	–	396	0.015	0.031
CC#CCOc1cnc(/C(F)=C/c2ccc(F)c([C@@]3(C)N=C(N)S[C@@]4(C(C)=O)C[C@H]43)c2)cn1 [Example 235, 1-((1S,5S,6S)-3-amino-5-(5-((Z)-2-(5-(but-2-yn-1-yloxy)pyrazin-2-yl)-2-fluorovinyl)-2-fluorophenyl)-5-methyl-2-thia-4-azabicyclo[4.1.0]hept-3-en-1-yl)ethanone]	0.247	0.0058	587	0.0022	–
C#CCOc1cnc(/C(F)=C/c2cnc(F)c([C@@]3(C)N=C(N)S[C@@]4(C(=O)N5CC[C@H](F)C5)C[C@H]43)c2)cn1 [Example 280, ((1S,5S,6S)-3-amino-5-(2-fluoro-5-((Z)-2-fluoro-2-(5-(prop-2-yn-1-yloxy)pyrazin-2-yl)vinyl)pyridin-3-yl)-5-methyl-2-thia-4-azabicyclo[4.1.0]hept-3-en-1-yl)((S)-3-fluoropyrrolidin-1-yl)methanone]	0.119	0.0016	115	0.0013	–
C#Cc1cnc(/C(F)=C/c2ccc(F)c([C@@]3(C)N=C(N)S[C@@]4(C(=O)N(C)C)C[C@H]43)c2)cn1 [Example 205, (1S,5S,6S)-3-amino-5-(5-((Z)-2-(5-ethynylpyrazin-2-yl)-2-fluorovinyl)-2-fluorophenyl)-N,N,5-trimethyl-2-thia-4-azabicyclo[4.1.0]hept-3-ene-1-carboxamide]	0.01	–	113	0.002	0.569
CN(C)C(=O)[C@]12C[C@H]1[C@@](C)(c1cc(/C=C(\F)c3cnc(OCC4CC4)cn3)ccc1F)N=C(N)S2 [Example 211, (1S,5S,6S)-3-amino-5-(5-((Z)-2-(5-(cyclopropylmethoxy)pyrazin-2-yl)-2-fluorovinyl)-2-fluorophenyl)-N,N,5-trimethyl-2-thia-4-azabicyclo[4.1.0]hept-3-ene-1-carboxamide]	0.044	0.247	67.8	0.022	–
C#CCOc1cnc(/C(F)=C/c2ccc(F)c([C@@]3(C)N=C(N)S[C@@]4(C(=O)N5[C@H]6COC[C@@H]5COC6)C[C@H]43)c2)cn1 [Example 279, ((1S,5S,6S)-3-amino-5-(2-fluoro-5-((Z)-2-fluoro-2-(5-(prop-2-yn-1-yloxy)pyrazin-2-yl)vinyl)phenyl)-5-methyl-2-thia-4-azabicyclo[4.1.0]hept-3-en-1-yl)((1R,5R)-3,7-dioxa-9-azabicyclo[3.3.1]nonan-9-yl)methanone]	0.176	0.001	42	0.0012	–
C[C@]1(c2cc(/C=C(\F)c3ccccn3)ccc2F)N=C(N)S[C@@]2(C(=O)N3CCOCC3)C[C@H]21 [Example 339, ((1S,5S,6S)-3-amino-5-(2-fluoro-5-((Z)-2-fluoro-2-(pyridin-2-yl)vinyl)phenyl)-5-methyl-2-thia-4-azabicyclo[4.1.0]hept-3-en-1-yl)(morpholino)methanone]	0.165	0.252	520	0.22	–
CN(C)C(=O)[C@]12C[C@H]1[C@@](C)(c1cc(/C=C(\F)c3cnc(C#N)cn3)cnc1F)N=C(N)S2 [Example 296, (1S,5S,6S)-3-amino-5-(5-((Z)-2-(5-cyanopyrazin-2-yl)-2-fluorovinyl)-2-fluoropyridin-3-yl)-N,N,5-trimethyl-2-thia-4-azabicyclo[4.1.0]hept-3-ene-1-carboxamide]	0.037	–	290	0.0119	0.0435
C#CCOc1cnc(/C(F)=C/c2ccc(F)c([C@@]3(C)N=C(N)S[C@@]4(C#N)C[C@H]43)c2)cn1 [Example 240, (1S,5S,6S)-3-amino-5-(2-fluoro-5-((Z)-2-fluoro-2-(5-(prop-2-yn-1-yloxy)pyrazin-2-yl)vinyl)phenyl)-5-methyl-2-thia-4-azabicyclo[4.1.0]hept-3-ene-1-carbonitrile]	0.081	0.0175	124	0.0012	–
